According to patent publication US20250313563A1, “GLYCOGEN SYNTHASE KINASE 3 INHIBITORS AND USES THEREOF” (The Broad Institute, Inc., priority 2022, published 2025):
Like-named read-outs stand apart in the source and are kept apart here.

How the values were obtained:
[1] = target: GSK3α (GST-full length GSK3α) (Homo sapiens (Human), UniProt P49840); experiment: GSK3α TR-FRET kinase assay; assay type: biochemical
How it was run: (§1)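 In this time-resolved FRET format, kinase reactions contained 200 nM biotinylated, S645-phosphorylated glycogen synthase 631-650 peptide and either isoform-specific ATP (2 μM GSK3b, 4 μM GSK3α) or 1 mM ATP. They were quenched with EDTA after 100 min at ambient temperature. Inhibition curves gave IC50 values.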

[2] = target: GSK3b (GST-full length GSK3b) (Homo sapiens (Human), UniProt P49841); experiment: GSK3b TR-FRET kinase assay; assay type: biochemical
How it was run: as §1

[3] = 1 nM GSK3α, 4 μM ATP, 30 minute preincubation, Table 16, read-out: GSK3-A TR-FRET BIOCHEMICAL (TR-FRET)
[4] = 1 nM GSK3b, 2 μM ATP, 30 minute preincubation, Table 16, read-out: GSK3-B TR-FRET BIOCHEMICAL (TR-FRET)
[5] = read-out: GSK3-A (TR-FRET 1 mM ATP), GMean, IC50, 1 mM ATP, geometric mean
[6] = read-out: GSK3-B (TR-FRET 1 mM ATP), GMean, IC50, 1 mM ATP, geometric mean
[7] = GSK3-A (TR-FRET 1 mM ATP), GMean, IC50, 1 mM ATP, geometric mean
[8] = GSK3-B (TR-FRET 1 mM ATP), GMean, IC50, 1 mM ATP, geometric mean
[9] = 1 nM GSK3α, 4 μM ATP, 30 minute preincubation, geometric mean, read-out: GSK3-A TR-FRET BIOCHEMICAL (TR-FRET), GMean, IC50
[10] = 1 nM GSK3b, 2 μM ATP, 30 minute preincubation, geometric mean, read-out: GSK3-B TR-FRET BIOCHEMICAL (TR-FRET), GMean, IC50
[11] = 1 nM GSK3α, 4 μM ATP, 30 minute preincubation, read-out: GSK3-A TR-FRET BIOCHEMICAL (TR-FRET), IC50
[12] = 1 nM GSK3b, 2 μM ATP, 30 minute preincubation, read-out: GSK3-B TR-FRET BIOCHEMICAL (TR-FRET), IC50

GSK3α (GST-full length GSK3α), sequence (P49840 whole entry, canonical isoform): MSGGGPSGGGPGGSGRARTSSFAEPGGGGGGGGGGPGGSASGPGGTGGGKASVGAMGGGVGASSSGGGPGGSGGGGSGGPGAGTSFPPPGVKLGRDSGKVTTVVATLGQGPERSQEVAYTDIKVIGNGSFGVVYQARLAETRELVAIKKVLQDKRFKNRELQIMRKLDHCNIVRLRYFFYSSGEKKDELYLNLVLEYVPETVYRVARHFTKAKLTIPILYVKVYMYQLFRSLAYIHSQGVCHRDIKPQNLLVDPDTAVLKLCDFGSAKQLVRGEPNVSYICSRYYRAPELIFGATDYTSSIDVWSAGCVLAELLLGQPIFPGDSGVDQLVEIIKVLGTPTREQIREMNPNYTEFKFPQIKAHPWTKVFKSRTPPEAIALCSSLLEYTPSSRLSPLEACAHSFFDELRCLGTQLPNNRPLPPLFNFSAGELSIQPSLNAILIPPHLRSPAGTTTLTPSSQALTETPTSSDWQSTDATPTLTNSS
GSK3b (GST-full length GSK3b), sequence (P49841 whole entry): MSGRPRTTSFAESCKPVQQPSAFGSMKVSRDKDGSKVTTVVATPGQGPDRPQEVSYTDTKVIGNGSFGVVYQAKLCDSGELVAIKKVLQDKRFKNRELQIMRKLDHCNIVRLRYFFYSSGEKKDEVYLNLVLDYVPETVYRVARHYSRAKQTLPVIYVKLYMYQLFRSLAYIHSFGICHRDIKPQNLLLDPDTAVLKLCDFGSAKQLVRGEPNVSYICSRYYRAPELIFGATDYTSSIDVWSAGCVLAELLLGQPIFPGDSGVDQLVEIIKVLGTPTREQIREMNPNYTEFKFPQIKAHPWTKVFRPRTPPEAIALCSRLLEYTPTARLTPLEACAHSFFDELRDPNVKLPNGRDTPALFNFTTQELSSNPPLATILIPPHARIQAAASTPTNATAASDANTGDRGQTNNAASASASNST

Compound | IC50 [1, 3] | IC50 [2, 4] | IC50 [1, 9] | IC50 [2, 10] | other results
CCC1(c2cccc(C(C)c3ncccn3)c2)C2=C(CC(C)(C)CC2=O)Nc2n[nH]cc21 (stereo not shown) [Compound 948057] | 100 to 1000 nM | 1000 to 5000 nM |  |  | 
CC[C@]1(c2cccc([C@H](C)c3ncccn3)c2)C2=C(CC(C)(C)CC2=O)Nc2n[nH]cc21 [Compound 948060] | ≤ 100 nM | ≤ 100 nM |  |  | IC50 [1, 5]: 100 to 1000 nM; IC50 [2, 6]: 1000 to 5000 nM
CCC1(c2cccc(C(C)c3ncccn3)c2)C2=C(CC(C)(C)CC2=O)Nc2n[nH]cc21 (stereo not shown) [Compound 948061] | 100 to 1000 nM | 1000 to 5000 nM |  |  | 
CCC1(c2cccc(-c3ccnc(C)n3)c2)C2=C(CC(C)(C)CC2=O)Nc2n[nH]cc21 (stereo not shown) [Compound 948088] | 100 to 1000 nM | 1000 to 5000 nM |  |  | 
CCC1(c2cccc(-c3nc(C)ncc3C)c2)C2=C(CC(C)(C)CC2=O)Nc2n[nH]cc21 (stereo not shown) [Compound 948091] | ≤ 100 nM | 100 to 1000 nM |  |  | 
CCC1(c2cccc(-c3ccnc(OC)n3)c2)C2=C(CC(C)(C)CC2=O)Nc2n[nH]cc21 (stereo not shown) [Compound 948092] | ≤ 100 nM | ≤ 100 nM |  |  | 
CC1(C)CC(=O)C2=C(C1)Nc1n[nH]cc1C21CCN(S(=O)(=O)c2ccc(F)c(Cl)c2)CC1 [Compound 948117] | ≤ 100 nM | ≤ 100 nM |  |  | 
CC1(C)CC(=O)C2=C(C1)Nc1n[nH]cc1C21CCN(S(=O)(=O)c2cccc(Cl)c2F)CC1 [Compound 948118] | ≤ 100 nM | ≤ 100 nM |  |  | IC50 [1, 7]: ≤ 100 nM; IC50 [2, 8]: 100 to 1000 nM
CC1(C)CC(=O)C2=C(C1)Nc1n[nH]cc1C21CCN(S(=O)(=O)c2ccc(F)c(F)c2)CC1 [Compound 948119] | ≤ 100 nM | ≤ 100 nM |  |  | 
CC1(C)CC(=O)C2=C(C1)Nc1n[nH]cc1C21CCN(S(=O)(=O)c2cnc3cccnn23)CC1 [Compound 948120] | ≤ 100 nM | ≤ 100 nM |  |  | IC50 [1, 7]: 100 to 1000 nM; IC50 [2, 8]: 1000 to 5000 nM
CC1(C)CC(=O)C2=C(C1)Nc1n[nH]cc1C21CCN(S(=O)(=O)c2cc(F)ccc2F)CC1 [Compound 948121] | ≤ 100 nM | ≤ 100 nM |  |  | IC50 [1, 7]: 100 to 1000 nM; IC50 [2, 8]: 100 to 1000 nM
CC1(C)CC(=O)C2=C(C1)Nc1n[nH]cc1C21CCN(S(=O)(=O)c2cc(Cl)ccc2Cl)CC1 [Compound 948122] | ≤ 100 nM | 100 to 1000 nM |  |  | 
CC1(C)CC(=O)C2=C(C1)Nc1n[nH]cc1C21CCN(S(=O)(=O)c2cnn(CC(F)(F)F)c2)CC1 [Compound 948123] | ≤ 100 nM | ≤ 100 nM |  |  | IC50 [1, 7]: 100 to 1000 nM; IC50 [2, 8]: 100 to 1000 nM
CCC1(c2cccc(-c3ccncc3Cl)c2)C2=C(CC(C)(C)NC2=O)Nc2n[nH]cc21 (stereo not shown) [Compound 948142] |  |  | ≤ 100 nM | ≤ 100 nM | IC50 [1, 5]: ≤ 100 nM; IC50 [2, 6]: 100 to 1000 nM
CC[C@]1(c2cccc(-c3ccnc4nc(C)ccc34)c2)C2=C(CC(C)(C)NC2=O)Nc2n[nH]cc21 [Compound 948143] |  |  | ≤ 100 nM | 100 to 1000 nM | 
CCC1(c2cccc(-c3c(F)cncc3OC)c2)C2=C(CC(C)(C)NC2=O)Nc2n[nH]cc21 (stereo not shown) [Compound 948145] |  |  | 100 to 1000 nM | > 5000 nM | 
CC[C@@]1(c2cccc(-c3ccnc(C)c3)c2)C2=C(C[C@@]3(CCCOC3)NC2=O)Nc2n[nH]cc21 [Compound 948146] |  |  | 1000 to 5000 nM | > 5000 nM | 
CCC1(c2cccc(-c3ccncc3C)c2)C2=C(CC(C)(COC)NC2=O)Nc2n[nH]cc21 (stereo not shown) [Compound 948147] |  |  | ≤ 100 nM | ≤ 100 nM | 
CCC1(c2cccc(-c3ccnc(C)c3)c2)C2=C(CC3(CCOC3)NC2=O)Nc2n[nH]cc21 (stereo not shown) [Compound 948148] |  |  | 1000 to 5000 nM | > 5000 nM | 
CC[C@]1(c2cccc(-c3ccnc(C)c3)c2)C2=C(C[C@]3(CCOC3)NC2=O)Nc2n[nH]cc21 [Compound 948149] |  |  | ≤ 100 nM | 100 to 1000 nM | 

Compound | IC50 [1, 3] | IC50 [2, 4] | IC50 [1, 9] | IC50 [2, 10] | other results
CCC1(c2cccc(-c3ccnc4nc(C)ccc34)c2)C2=C(CC(C)(C)NC2=O)Nc2n[nH]cc21 (stereo not shown) [Compound 948151] |  |  | 100 to 1000 nM | > 5000 nM | 
CCC1(c2cccc(-c3ccnc(C)c3)c2)C2=C(CC3(CCCOC3)NC2=O)Nc2n[nH]cc21 (stereo not shown) [Compound 948152] |  |  | ≤ 100 nM | 100 to 1000 nM | 
CCC1(c2cccc(-c3ccnc(C)c3)c2)C2=C(CC3(CCCOC3)NC2=O)Nc2n[nH]cc21 (stereo not shown) [Compound 948153] |  |  | > 5000 nM | > 5000 nM | 
CC1(C)CC(=O)C2=C(C1)Nc1n[nH]cc1[C@]21COC2(CN(C(=O)C(F)(F)F)C2)C1 [Compound 948156] |  |  |  |  | IC50 [1, 11]: ≤ 100 nM; IC50 [2, 12]: 100 to 1000 nM
CCC1(c2cccc(N(C)c3ncccn3)c2)C2=C(CC(C)(C)NC2=O)Nc2n[nH]c(C(F)(F)F)c21 (stereo not shown) [Compound 948176] |  |  | ≤ 100 nM | ≤ 100 nM | 
CCC1(c2cccc(S(=O)(=O)CC3CC3)c2)C2=C(CC(C)(C)NC2=O)Nc2n[nH]cc21 (stereo not shown) [Compound 948177] |  |  | ≤ 100 nM | 100 to 1000 nM | 
CCC1(c2cccc(S(=O)(=O)CC3CC3)c2)C2=C(CC(C)(C)NC2=O)Nc2n[nH]c(C(F)(F)F)c21 (stereo not shown) [Compound 948179] |  |  | ≤ 100 nM | ≤ 100 nM | 
CCC1(c2cccc(-c3cncn3C)c2)C2=C(CC(C)(C)NC2=O)Nc2n[nH]c(C(F)(F)F)c21 (stereo not shown) [Compound 948180] |  |  | ≤ 100 nM | ≤ 100 nM | 
CC[C@]1(c2cccc(-c3ccnc(C)c3C)c2)C2=C(CC(C)(C)NC2=O)Nc2n[nH]c(C(F)(F)F)c21 [Compound 948181] |  |  | 100 to 1000 nM | 100 to 1000 nM | 
CC[C@]1(c2cccc(-c3ccnc(C)c3C)c2)C2=C(CC(C)(C)NC2=O)Nc2n[nH]cc21 [Compound 948184] |  |  | ≤ 100 nM | 100 to 1000 nM | IC50 [1, 5]: 100 to 1000 nM; IC50 [2, 6]: 1000 to 5000 nM
CCC1(c2cccc(-c3ccnc(C)c3C)c2)C2=C(CC(C)(C)NC2=O)Nc2n[nH]c(C(F)(F)F)c21 (stereo not shown) [Compound 948185] |  |  | ≤ 100 nM | ≤ 100 nM | IC50 [1, 5]: ≤ 100 nM; IC50 [2, 6]: ≤ 100 nM
CCC1(c2cccc(-c3ccnc(C)c3C)c2)C2=C(CC(C)(C)NC2=O)Nc2n[nH]c(C)c21 (stereo not shown) [Compound 948187] |  |  | ≤ 100 nM | ≤ 100 nM | 
CCC1(c2cccc(C(F)(F)F)c2)C2=C(Nc3n[nH]cc31)c1ccccc1C2=O (stereo not shown) [Compound 948205] |  |  |  |  | IC50 ([1]; 1 nM GSK3α, 4 μM ATP, 30 minute preincubation, Table 16, read-out: GSK3-A TR-FRET BIOCHEMICAL (TR-FRET), IC50): ≤ 100 nM; IC50 [1, 7]: 100 to 1000 nM; IC50 ([2]; 1 nM GSK3b, 2 μM ATP, 30 minute preincubation, Table 16, read-out: GSK3-B TR-FRET BIOCHEMICAL (TR-FRET), IC50): ≤ 100 nM; IC50 [2, 8]: 100 to 1000 nM
Cc1cc(C)cc(C(=O)N2CC3(C2)CC2(CO3)C3=C(CC(C)(C)CC3=O)Nc3n[nH]cc32)c1 (stereo not shown) [Compound 948222] |  |  |  |  | IC50 [1, 11]: 100 to 1000 nM; IC50 [2, 12]: 1000 to 5000 nM
Cc1cc(C)cc(C(=O)N2CC3(C2)C[C@]2(CO3)C3=C(CC(C)(C)CC3=O)Nc3n[nH]cc32)c1 [Compound 948223] |  |  |  |  | IC50 [1, 11]: ≤ 100 nM; IC50 [1, 5]: 100 to 1000 nM; IC50 [2, 12]: ≤ 100 nM; IC50 [2, 6]: 100 to 1000 nM
CC[C@@]1(c2cccc(C(F)(F)F)c2)C2=C(CCN(c3ccc(F)cc3)C2=O)Nc2n[nH]cc21 [Compound 948224] |  |  | ≤ 100 nM | 100 to 1000 nM | 
CC[C@]1(c2cccc(C(F)(F)F)c2)C2=C(CCN(c3ccc(F)cc3)C2=O)Nc2n[nH]cc21 [Compound 948225] |  |  | 1000 to 5000 nM | > 5000 nM | 
CC[C@]1(c2cccc(C(F)(F)F)c2)C2=C(CCN(c3ccc(OC)cc3)C2=O)Nc2n[nH]cc21 [Compound 948227] |  |  | 1000 to 5000 nM | > 5000 nM | 
CCC1(c2cccc(C(F)(F)F)c2)C2=C(CCN(c3ccc(C)cc3)C2=O)Nc2n[nH]cc21 (stereo not shown) [Compound 948241] |  |  | ≤ 100 nM | 100 to 1000 nM | 
CCC1(c2cccc(-c3ccnc(C)c3F)c2)C2=C(CC(C)(C)NC2=O)Nc2n[nH]c(C(F)(F)F)c21 (stereo not shown) [Compound 948297] |  |  | ≤ 100 nM | ≤ 100 nM | 
